# Laboratory results: patent US8563586B2, “1,(3,)5-substituted imidazoles, their use in the treatment of hypertension and methods for their preparation” (Eldrug S.A., priority 2007, dated 2013)
# Entries after “also recorded” stand apart in the source; their conditions may differ.
# How the values were obtained:
# [1] = test system: anesthetized rabbits made hypertensive by AII infusion; test: In vivo: anesthetized rabbits made hypertensive by AII infusion, IV boluses of compound; set-up: species or system New Zealand White rabbits; settings: for AII antagonistic effect: doses of 2 and 3.5 mol, cumulative IV boluses, potency order 22, 20, 15, 18, 23, 21, 30, 29; for in vivo antihypertensive potency / activity, relative, in words: anesthetized rabbits, angiotensin II-induced hypertension
# Experimental: The applicant has also established an in vivo assay using anesthetized rabbits in [Onassis 30 Cardiac Institute] which allows us to estimate relative potencies.
# The assay is a routine assay and constitutes a convenient method to measure activities of AII antagonists.
# In vivo experiments: Adult normotensive male New Zealand White rabbits weighing between 2.5 and 3.3 kg were used in the study following previously described methods.^46,47 In brief, animals were anesthetized by pentobarbitone (30 mg/kg), intubated and mechanically ventilated with 100% oxygen using a respirator for small animals (MD Industries, Mobile, Ala., USA). The tidal volume was 15 ml and the rate was adjusted to keep blood gases within normal rage. Two polyethylene catheters were inserted, one in the carotid artery for continuous blood pressure monitoring via a transducer attached to a multichannel recorder (Nihon-Kohden, Model 6000, Japan) and the other one in the jugular vein for the administrations of solution made by diluting Angiotensin II (AII) (Hypertensin, CIBA) in 5% dextrose at final concentration of 5 µg/ml. Based on previous testing with this rabbit preparation submaximal angiotensin II-dependent hypertension was induced by infusing Angiotensin via a syringe pump (Harvard Apparatus Pump 22, Harvard Apparatus, Natick. Mass., USA) at a constant rate of 0.2 ml/min ([…]). […] Five minutes after the establishment of hypertension, two cumulative IV boluses of each compound (2 and 3.5 mol) were given via an ear vein 20 minutes apart. The blood pressure was monitored for 20 minutes after the second bolus and then angiotensin infusion was halted and blood pressure was recorded for an additional period of 20 minutes until the end of the experiment. Boluses of the same dose of Losartan, as positive control, were used in the same experimental model.
# The antihypertensive effect and the degree of potency of these compounds were tested in a preparation of anesthetized rabbits made hypertensive by AII infusion.
# human AT1 = target: T1, human AT1 (Homo sapiens, UniProt P30556); test: In vitro binding, membranes containing AT1 receptor, radioligand [125I]Sar1,Ile8-Angiotensin II
# T1 construct: purchased PerkinElmer Life Sciences, Inc., Boston, Mass., USA
# T1 sequence (P30556 1-359): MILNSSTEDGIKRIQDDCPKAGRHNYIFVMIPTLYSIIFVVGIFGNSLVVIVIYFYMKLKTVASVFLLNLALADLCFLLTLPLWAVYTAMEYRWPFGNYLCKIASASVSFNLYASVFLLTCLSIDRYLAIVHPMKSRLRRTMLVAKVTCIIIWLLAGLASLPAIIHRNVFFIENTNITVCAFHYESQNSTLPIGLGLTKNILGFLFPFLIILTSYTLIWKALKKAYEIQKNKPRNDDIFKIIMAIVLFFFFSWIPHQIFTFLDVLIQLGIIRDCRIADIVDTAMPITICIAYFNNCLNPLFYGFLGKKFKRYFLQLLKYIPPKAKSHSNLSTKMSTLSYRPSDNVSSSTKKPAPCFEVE
# [2] = test system: conscious rabbits made hypertensive by angiotensin II infusion; settings: 15 mg mixed with vaseline applied on bare skin
# Text: Conscious rabbits were made hypertensive by angiotensin II infusion. A mixture of 1 5 mgr of our lipophilic angiotensin II receptor blocker compound 20 (or its dialkylated counterpart) with vaseline was applied on bare skin.
# rat isolated uterus = settings: cited from earlier work
# anesthesized rabbits = settings: rabbit, in vivo; cited from earlier work
compound,measurement,setting,value
"Cc1cn(C(c2ccccc2)(c2ccccc2)c2ccccc2)cn1 [Compound 15, 3-(Triphenylmethyl)-5-methylimidazole]",AII antagonistic effect,[1],dose-dependent AII antagonistic effect
"CCCCc1cncn1Cc1ccc(-c2ccccc2-c2nnn(C(c3ccccc3)(c3ccccc3)c3ccccc3Cl)n2)cc1 [Compound 18, 5-Butyl-1-[[2′-[[N-(2-chloro-triphenylmethyl)]tetrazol-5-yl]biphenyl-4-yl]methyl]imidazole]","in vivo antihypertensive potency / activity, relative, in words",[1],more potent; also recorded: less potent compared to 20 and 25
same,AII antagonistic effect,[1],dose-dependent AII antagonistic effect
"CCCCc1cnc(CO)n1Cc1ccc(-c2ccccc2-c2nnn(C(c3ccccc3)(c3ccccc3)c3ccccc3Cl)n2)cc1 [Compound 20, 5-Butyl-2-hydroxymethyl-1-[[2′-[[N-(2-chloro-triphenylmethyl)]tetrazol-5yl]biphenyl-4-yl]methyl]imidazole]","affinity for AT1 receptor, in words, relative to Losartan",human AT1; in vitro binding studies,lower affinity
same,"in vivo antihypertensive potency / activity, relative, in words",[1],highly potent; also recorded: more potent compared to 18; also recorded: most potent
same,AII antagonistic effect,[1],dose-dependent AII antagonistic effect
same,blood pressure lowered by,[2],20 mmHg
same,duration of blood pressure lowering,[2],two
"Cc1cnc(CO)n1Cc1ccc(-c2ccccc2-c2nnn(C(c3ccccc3)(c3ccccc3)c3ccccc3Cl)n2)cc1 [Compound 21, 5-Methyl-2-hydroxymethyl-1-[[2′-[[N-(2-chloro-triphenylmethyl)]tetrazol-5-yl]biphenyl-4-yl]methyl]imidazole]","in vivo antihypertensive potency / activity, relative, in words",[1],less potent; also recorded: least active
same,AII antagonistic effect,[1],dose-dependent AII antagonistic effect
"CCCCc1cnc(CO)n1Cc1ccc(-c2ccccc2-c2nnn[nH]2)cc1 [Compound 22, 5-butyl-2-hydroxymethyl-1-[[2′-(1H-tetrazol-5-yl)biphenyl-4-yl]methyl]imidazole]",fold lower affinity for the AT1 receptor than that of Losartan,human AT1; from IC50 values,~3 fold
same,IC50,"human AT1; membranes containing AT1 receptors, competition with 0.1 nM [125I]Sar1,Ile8-Angiotensin II, read-out: IC50, affinity for the AT1 receptor",53.8 ± 6.4 nM
same,"in vivo antihypertensive potency / activity, relative, in words",[1],highly potent; also recorded: more potent compared to 18; also recorded: slightly superior in activity; also recorded: most potent
same,AII antagonistic effect,[1],dose-dependent AII antagonistic effect
"Cc1cnc(CO)n1Cc1ccc(-c2ccccc2-c2nnn[nH]2)cc1 [Compound 23, 5-methyl-2-hydroxymethyl-1-[[2′-(1H-tetrazol-5-yl)biphenyl-4-yl]methyl]imidazole]","in vivo antihypertensive potency / activity, relative, in words",[1],less potent
same,AII antagonistic effect,[1],dose-dependent AII antagonistic effect
"CCCCc1cncn1Cc1ccc(-c2ccccc2-c2nnnn2Cc2ccccc2)cc1 [Compound 24, 1-[[2′-[(N-benzyl)tetrazol-5-yl]biphenyl-4-yl]methyl]-5-butylimidazole]",melting point,,69 to 71 °C
"CCCCc1cnc(CO)n1Cc1ccc(-c2ccccc2-c2nnnn2Cc2ccccc2)cc1 [Compound 25, 1-[[2′-[(N-benzyl)tetrazol-5-yl]biphenyl-4-yl]methyl]-5-butyl-2hydroxymethyl imidazole]","in vivo antihypertensive potency / activity, relative, in words",[1],more potent compared to 18; also recorded: most potent
"c1ccc(Cn2nnnc2-c2ccccc2-c2ccc(Cn3cnc4ccccc43)cc2)cc1 [Compound 28, 1-[[2′-[(N-benzyl)tetrazol-5-yl]biphenyl-4-yl]methyl]benzimidazole]",melting point,,62 to 64 °C
same,"in vivo antihypertensive potency / activity, relative, in words",[1],even less potent
"OCc1nc2ccccc2n1Cc1ccc(-c2ccccc2-c2nnnn2Cc2ccccc2)cc1 [Compound 29, 1-[[2′-[(N-benzyl)tetrazol-5-yl]biphenyl-4-yl]methyl]-2-hydroxymethyl benzimidazole]",melting point,,62 to 63 °C
same,"in vivo antihypertensive potency / activity, relative, in words",[1],even less potent
same,AII antagonistic effect,[1],dose-dependent AII antagonistic effect
"OCc1nc2ccccc2n1Cc1ccc(-c2ccccc2-c2nnn[nH]2)cc1 [Compound 30, 2-hydroxymethyl-1-[[2′-(1H-tetrazol-5-yl)biphenyl-4-yl]methyl]benzimidazole]","in vivo antihypertensive potency / activity, relative, in words",[1],even less potent; also recorded: least active
same,AII antagonistic effect,[1],dose-dependent AII antagonistic effect
"[Sar^1, Lys^3, Glu^5] ANG II",activity in the rat uterus assay,rat isolated uterus,agonist activity
same,activity in anesthesized rabbits,anesthesized rabbits,agonist activity
